Source: US6797699B1, “Neuroprotective agents” (University of Southampton, priority 1997, dated 2004)
“Also recorded” adds a separate entry of the source. Marks after values point to notes of the source that are not given here.

What was measured:
[1] = test system: CA1 pyramidal cell layer of organotypic hippocampal slice cultures; test: Hypoxic neuronal damage in organotypic hippocampal slice cultures (propidium iodide fluorescence); assay type: cell-based, Wistar rat
Description: Hypoxic neuronal damage was studied using organotypic hippocampal slice cultures [Pringle A. K. et al. (1996 Stroke 27 2124-2130)].
Cultures were prepared according to the method of Stoppini et al (1991 J. Neurosci. Meth. 37 173-182) from 8-10 day old Wistar rat pups (Bioresources Unit, University of Southampton). Cultures were maintained in vitro for 14 days (37° C., 5% CO2) during which the medium (50% minimum essential medium (MEM), 25% Hank's balanced salt solution (HBSS), 25% heat-inactivated horse serum, supplemented with 1 mM glutamine, 5 mg/ml glucose and 1.5% fungizone) was changed every 3 days. Hypoxia was induced by replacing culture medium with serum-free (SF) medium (75% MEM, 25% HBSS, 1 mM glutamine, 5 mg/ml glucose, 1.5% fungizone) saturated with 95% N2/5% CO2 (and thus oxygen-free), and placing cultures in an air-tight chamber in which the atmosphere was also saturated with N2/CO2. After 180 minutes hypoxia, cultures were replated in normoxic SF medium and replaced in the incubator for 24 hours. Compounds were added to cultures either pre-, during and post-hypoxia (herein abbreviated to “pdp”) or just in the post-hypoxic recovery period (“post”) [Johnson, T. D. (1996 Trends Pharmacol. Sci. 22-27)]. Cell damage was evaluated using the fluorescent exclusion dye propidium iodide (PI, 5 μg/ml) which is normally excluded from healthy cells, but enters cells with damaged plasma membranes and becomes highly fluorescent when bound to DNA. Neuronal cell damage was quantified using the “NIH Image 1.55” software (written by Wayne Rasband at the U.S. National Institutes for Health and available from the internet by anonymous ftp from zippy.nimh.nih.gov). Briefly, the area of the CA1, CA3 and dentate gyrus (DG) cell layers was measured from a transmission image. 24 hours after the commencement of hypoxia, a fluorescence image was captured using a standard Leica inverted fluorescence microscope fitted with a rhodamine filter set. The area of PI fluorescence above background in the neuronal cell layers was determined using the density slice function of Image. Cellular damage is expressed as the percentage area of the cell body layers in which PI fluorescence was detectable. After imaging, cultures were fixed overnight in 4% paraformaldehyde and stained with thionin.
Data are expressed as the mean±sem. Data from the non-drug groups was pooled before analysis. Statistical significance was determined using one-way analysis of variance (ANOVA) followed by post-hoc non-paired Student's t-tests. As only cells within the CA1 region were susceptible to hypoxia-induced damage, all of the pharmacological data was calculated for this region alone.
Table 1 represents the quantification of the percentage area of the CA1 pyramidal cell layer in which PI fluorescence was detectable 24 hours after 3 hours of hypoxia (% Damage CA1). Data from all of the cultures exposed to hypoxia alone were pooled (control hypoxia). The percentage neuroprotection was calculated as the (((% damage control hypoxia-% damage drug treated)/% damage control hypoxia) 100). Data are expressed as the mean±sem, n=number of cultures, *p<0.05, **<0.01, ***p<0.001 vs hypoxia control.

mice = settings: FTX isolated from funnel-web spider toxin; Proc. Natl. Acad. Sci. USA 86, 1689-1693 (1989); cited from earlier work
[2] = Table 1, 300 μM added post-hypoxia, 3 h hypoxia, PI at 24 h, control hypoxia 35.6 ± 1.43, mean±sem
[3] = Table 1, 300 μM added post-hypoxia, vs control hypoxia

Compound	neuroprotective effect / reduction of PI fluorescence in CA1 (in words) ([1]; 300 μM added post-hypoxia)	% Damage CA1 [1, 2]	% Protection [1, 3] [%]	further results
NCCCCNCCCN [Spermidine, spermidine, reference compound]	no neuroprotective effects; also recorded: no efficacy was detected	34.2 ± 5.4%	3.9	
N=C(N)NCCC[C@H](N)C(=O)O [L-Arg, L-arginine, reference compound]	no efficacy was detected	38.5 ± 4.0%	0	neuroprotective effect / reduction of PI fluorescence in CA1 (in words) ([1]; 300 μM added post-hypoxia, listed as L-arginine): Neither spermidine nor L-arginine individually produced a reduction in damage
NCCCCNCCCNC(=O)C(N)CCCCN [B, N^1-L-Lysinylspermidine]	also protective, although to a lesser extent	27.0 ± 3.7* %	24.2	neuroprotective effect / reduction of PI fluorescence in CA1 (in words) ([1]; 300 μM added post-hypoxia, listed as L-LysSp): small but significant reduction in PI fluorescence; also recorded: active
NCCCCNCCCNC(=O)C(N)CCCNC(N)=O (stereo not drawn) [Compound I]	significant protective effect			% Protection ([1]; Table 6, 300 μM post): 53%; % Damage CA1 ([1]; Table 6, 300 μM post, hypoxia control 23.2 ± 4.9): 10.9 ± 5.7* %
NC(N)=NCCCC(N)C(=O)O [D-Arg, reference compound]		32.7 ± 7.0%	8.1	
N^1-D-Lysinylspermidine [Compound Z^2]		36.3 ± 3.5%	0	neuroprotective effect / reduction of PI fluorescence in CA1 (in words) ([1]; 300 μM added post-hypoxia, listed as D-LysSp): did not result in any observable reduction of PI fluorescence; also recorded: inactive
N=C(N)NCCCC(N)C(=O)NCCCNCCCN (stereo not drawn) [FTX]				toxicity to mice (in words) (mice): toxic to mice in extremely small doses
N^1-D-Ornithylspermidine [Compound Z^3]	did not result in any observable reduction of PI fluorescence	36.71 ± 3.2%	0	
NCCCCNCCCNC(=O)C(N)CCCN [C, N^1-L-Ornithylspermidine]	also protective, although to a lesser extent	30.6 ± 3.8%	14.0	neuroprotective effect / reduction of PI fluorescence in CA1 (in words) ([1]; 300 μM added post-hypoxia, listed as L-OrnSp): less of a significant reduction in damage; also recorded: active
N1-D-Arginylspermidine [Compound Z^1]		32.6 ± 4.1%	8.4	neuroprotective effect / reduction of PI fluorescence in CA1 (in words) ([1]; 300 μM added post-hypoxia, listed as D-ArgSp): did not result in any observable reduction of PI fluorescence; also recorded: inactive
